Among the data in US9227970B2, “Triazolopyridine compounds” (Hoffmann-La Roche Inc., priority 2011, dated 2016) are IC50, Ames test and melting point values, retold here.

As usually defined, the IC50 is the point on the concentration scale where inhibition reaches its midpoint. The term melting point denotes the temperature, or range, at which the solid turns liquid.

One series deals with human PDE10A (Homo sapiens (Human), UniProt Q9Y233). Put plainly: human PDE10A full length Scintillation Proximity Assay (SPA). Format: biochemical. The settings on record: 50 nM cGMP + 50 nM [3H]-cGMP, 20 minutes at room temperature, read-out: PDE10A inhibition IC50. The method, then: The following test was carried out in order to determine the activity of the compounds of the present invention. […] The human PDE10A full length assay was performed in 96-well micro titer plates. […] A range of concentrations of the potential inhibitor was used to generate data for calculating the concentration of inhibitor resulting in 50% of the effect (e.g. […] Non-specific activity was tested without the enzyme. The reaction was initiated by the addition of the substrate solution (cGMP and [^3H]-cGMP) and allowed to progress for 20 minutes at room temperature. The reaction was terminated by adding 25 μl of YSi-SPA scintillation beads (GE Healthcare, cat. # RPNQ0150) in 18 mM zinc sulphate solution (stop reagent). […] Afterwards, radioactive counts were measured on a Perkin Elmer Top-Count Scintillation plate reader.
In general terms: SPA uses beads or plates that emit light when radiolabelled molecules are held near them.

Another series concerns Salmonella. As to the kind of experiment: Ames test (downscaled preincubation version). It counts as cell-based. The settings on record: downscaled standard preincubation Ames test. On the procedure: Ames Test was performed as a downscaled version of the standard preincubation Ames test and adapted from the method described by Kado et al. with some modifications e.g. Maron. D. M. and B. N. Ames (1983). Revised methods for the Salmonella mutagenicity test. Mutation Research, 113, 173-215. N. Y. Kado, D. Langley and E. Eisenstadt A simple modification of the Salmonella liquid-incubation assay. Increased sensitivity for detecting mutagens in human urine, Mutat Res 121 (1983) 25-32.

human PDE10A, sequence (Q9Y233 other isoform, or with tags, fused parts or gaps): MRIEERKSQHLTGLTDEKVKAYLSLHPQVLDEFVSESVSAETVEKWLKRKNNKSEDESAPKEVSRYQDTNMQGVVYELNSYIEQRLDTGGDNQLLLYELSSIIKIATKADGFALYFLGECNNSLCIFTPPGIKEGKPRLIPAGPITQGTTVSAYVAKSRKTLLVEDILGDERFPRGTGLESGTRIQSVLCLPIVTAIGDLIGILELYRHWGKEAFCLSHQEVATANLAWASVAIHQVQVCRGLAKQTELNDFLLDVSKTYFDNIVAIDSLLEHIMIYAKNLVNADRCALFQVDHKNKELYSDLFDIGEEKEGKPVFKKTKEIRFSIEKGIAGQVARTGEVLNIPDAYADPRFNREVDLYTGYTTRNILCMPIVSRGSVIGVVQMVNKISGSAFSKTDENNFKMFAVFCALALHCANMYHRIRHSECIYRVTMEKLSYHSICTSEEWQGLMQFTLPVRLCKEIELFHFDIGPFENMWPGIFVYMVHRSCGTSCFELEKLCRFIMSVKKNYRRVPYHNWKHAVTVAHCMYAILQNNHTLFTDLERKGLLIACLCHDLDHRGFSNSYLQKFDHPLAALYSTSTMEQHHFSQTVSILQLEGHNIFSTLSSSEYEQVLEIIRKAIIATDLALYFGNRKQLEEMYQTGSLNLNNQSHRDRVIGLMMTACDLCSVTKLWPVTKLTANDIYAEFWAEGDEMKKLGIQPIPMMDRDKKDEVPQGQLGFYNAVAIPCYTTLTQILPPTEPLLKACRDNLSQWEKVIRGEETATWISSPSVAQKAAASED

`Cn1ncc(C(=O)N2CCC2)c1C(=O)Nc1ccc2nc(-c3ccccc3)nn2c1` [Example 3, 4-(Azetidine-1-carbonyl)-2-methyl-2H-pyrazole-3-carboxylic acid (2-phenyl-[1,2,4]triazolo[1,5-a]pyridin-6-yl)-amide]: the melting point lay in the range of 235 to 236 °C. In addition, the IC50 at human PDE10A came out at 0.6 nM. Also, the Ames test result in the series with Salmonella is “negative”.
The like results for `CN(C(=O)c1cnn(C)c1C(=O)Nc1ccc2nc(-c3cccnc3)nn2c1)C1CC1` [Example 11, N4-Cyclopropyl-N4,1-dimethyl-N5-(2-(pyridin-3-yl)-[1,2,4]triazolo[1,5-a]pyridin-6-yl)-1H-pyrazole-4,5-dicarboxamide] were, in that order, 237 °C, 6.7 nM and “negative”.
Take `Cn1ncc(C(=O)N2CCC2)c1C(=O)Nc1ccc2nc(N3CCOCC3)nn2c1` [Example 15]: the Ames test entry in the series on Salmonella is listed as “negative”.
The compound `Cn1ncc(C(=O)N2CCOCC2)c1C(=O)Nc1ccc2nc(-c3ccccc3)nn2c1` [Example 5, 1-Methyl-4-(morpholine-4-carbonyl)-N-(2-phenyl-[1,2,4]triazolo[1,5-a]pyridin-6-yl)-1H-pyrazole-5-carboxamide] displayed a melting point of 183 to 185 °C. The IC50 at human PDE10A was determined as 2.5 nM. Besides, the Ames test entry in the series with Salmonella was “negative”.
Regarding `CN(C)c1nc2ccc(NC(=O)c3c(C(=O)N4CCC4)cnn3C)cn2n1` [Example 20, 4-(Azetidine-1-carbonyl)-2-methyl-2H-pyrazole-3-carboxylic acid (2-dimethylamino-[1,2,4]triazolo[1,5-a]pyridin-6-yl)-amide], on human PDE10A, the IC50 amounted to 8.2 nM. The Ames test result in the series with Salmonella was “negative”.
`Cn1ncc(C(=O)N2CCOCC2)c1C(=O)Nc1ccc2nc(-c3cccnc3)nn2c1` [Example 9, 2-Methyl-4-(morpholine-4-carbonyl)-2H-pyrazole-3-carboxylic acid (2-pyridin-3-yl-[1,2,4]triazolo[1,5-a]pyridin-6-yl)-amide]: the melting point came out at 229 °C. For the same compound, the IC50 at human PDE10A was 13.2 nM.
The like results for `Cn1ncc(C(=O)N2CC(F)C2)c1C(=O)Nc1ccc2nc(-c3ccccc3)nn2c1` [Example 6, 4-(3-Fluoro-azetidine-1-carbonyl)-2-methyl-2H-pyrazole-3-carboxylic acid (2-phenyl-[1,2,4]triazolo[1,5-a]pyridin-6-yl)-amide] were, in that order, 243 °C and 1.5 nM.
Taken in the same sequence, the figures for `Cn1ncc(C(=O)N2CCCC2)c1C(=O)Nc1ccc2nc(-c3cccnc3)nn2c1` [Example 12, 1-Methyl-N-(2-(pyridin-3-yl)-[1,2,4]triazolo[1,5-a]pyridin-6-yl)-4-(pyrrolidine-1-carbonyl)-1H-pyrazole-5-carboxamide] were 251 °C and 17.9 nM.
Regarding `Cn1ncc(C(=O)N2CCCC2)c1C(=O)Nc1ccc2nc(-c3ccccc3)nn2c1` [Example 2, 2-Methyl-4-(pyrrolidine-1-carbonyl)-2H-pyrazole-3-carboxylic acid (2-phenyl-[1,2,4]triazolo[1,5-a]pyridin-6-yl)-amide], the melting point was 210 °C. Besides, the IC50 on human PDE10A worked out at 1.2 nM.
On to `CN(C)c1nc2ccc(NC(=O)c3c(C(=O)N4CCOCC4)cnn3C)cn2n1` [Example 19, 2-Methyl-4-(morpholine-4-carbonyl)-2H-pyrazole-3-carboxylic acid (2-dimethylamino-[1,2,4]triazolo[1,5-a]pyridin-6-yl)-amide], for which, on human PDE10A, the IC50 is 36 nM. In the series with Salmonella, the Ames test result is recorded as “negative”.
